Consider 16 sequences from patent US20200297760A1, “COMPOSITIONS AND METHODS FOR REDUCING IMMUNE RESPONSES AGAINST CHIMERIC ANTIGEN RECEPTORS” (Juno Therapeutics, Inc., priority 2015, published 2020).

For experiment [1], the system named is PBMCs of subjects treated with CD19-specific CAR T cells. The experiment in a line: ELISpot assay for specific immune response to individual CAR peptides. It is filed as cell-based, human. As to conditions: PBMCs of patients with detected CAR-specific immune response after CD19 CAR T cell infusion. The protocol:
Individual ELISpot assays were performed using an anti-cytokine capture antibody to assess the presence or absence of a specific immune response for each of these individual hits (see Berger et al. (2006); Berger et al. (2001); Riddell et al. (1996); and Berger et al. (2005), supra). Specific immune responses against peptides with sequences within the VH portion of the scFv of the CAR were detected in both patients assessed (including regions within the FR1, CDR1, and FR2 regions for one patient and within the FR3 for the other). […] These two overlapping 15-mer peptides had the amino acid sequences […] (SEQ ID NO: 8) and […] (SEQ ID NO: 9, also set forth in SEQ ID NO:165), respectively. In another study following administration with a different CAR having a murine scFv, CD28 transmembrane and costimulatory domains and a CD3 zeta domain, using similar methods, an immune response also was detected for one subject against a pool containing VH portions of an anti-CD19 scFv and for another subject in a pool containing junction portions.

The target of the next experiment is HLA-A*02:01 (Homo sapiens, UniProt P04439, D140Y/D185E/D98H/E176V/E277Q/G131W/G231S/I119V/I121R/I166T/I218V/L300P/L318F/N151K/N90K/P208A/P217A/Q86G/Q94H/R138H/R169H/T345S). The experiment can be described thus: REVEAL Epitope Discovery System in vitro MHC-peptide binding assay. As to conditions: binding normalized to positive control peptide set at 100%, greater than 50 considered good or high affinity binding. Here is the method:
(§1) Actual binding affinities for certain HLA class I alleles (A*02:01, A*03:01, A*11:01, and B*08:01) were assessed in vitro for exemplary overlapping 9 amino acid peptide sequences within a portion of the 26 amino acid junction region spanning the CD28 and 4-1BB junction. Specifically, assessment was of a series of overlapping 9-mer peptides derived from the sequence […] (set forth in SEQ ID NO: 7), which contains a portion of the CD28 transmembrane domain and 4-1BB costimulatory domain spanning the junction between the domains (bond joining the two amino acids noted in underline). In addition, a series of overlapping 9-mer peptides of each of a number of different variants of this portion also were assessed, each variant containing a mutation or mutations in this region as described in Example 2.
(§2) The various 9-mer overlapping peptides were synthesized and their purity tested by MALDI-TOF Mass Spectrometry. The synthetic peptides were then incubated with recombinant MHC molecules to assess binding properties using the REVEAL Epitope Discovery System, which is a high-throughput binding assay that measures the degree to which each peptide is able to stabilize a ternary MHC-peptide complex (Prolmmune, Oxford, United Kingdom). Each peptide was separately tested for this ability with respect to each of the HLA class I alleles, normalized to the degree observed for a positive control (known T cell epitope for the relevant allele). The results are reported as a score, in which the binding was normalized to the positive control peptide set at 100%. In this analysis, a score of greater than 50 generally was considered to represent good or high affinity binding.

Another experiment deals with HLA-A*03:01 (Homo sapiens, UniProt P04439). The description is as above. As to conditions: REVEAL score, binding normalized to positive control peptide set at 100%; greater than 50 considered good or high affinity binding. The protocol: as §1, §2
Another experiment has as its target HLA-A*11:01 (Homo sapiens, UniProt P04439, A114D/D185E/E176A/F33Y/L180Q/S129P/T187R). The experiment is described as above. The note with it: binding normalized to positive control peptide set at 100%, >50 considered good or high affinity binding. Here is the method:
as §1, §2

The next experiment deals with HLA-B*08:01 (Homo sapiens, UniProt P01889, A93T/A95T/D138N/E176V/E187T/K202T/Q94N/R180D/S35A/V36M/Y33D/Y91F). The experiment is described as above. As to conditions: binding normalized to positive control peptide set at 100%, >50 considered good or high affinity binding. The protocol: as §1, §2

No end group written: not given here.

With AFIIFWVKRGRKKLL, in experiment [1], the “specific immune response against peptide (ELISpot)” value was “specific immune responses also were detected”.
The same measure, in the same setting: next, FWVKRGRKKLLYIFK: “specific immune responses also were detected”.
Take WVHRGRKKL: the “A*02:01 In Vitro Score” value on HLA-A*02:01 was 1.60. Besides, the “A*03:01 In Vitro” value on HLA-A*03:01 stood at 3.40. In addition, at HLA-A*11:01, the “A*11:01 In Vitro Score” value is on record as 5.60. The “B*08:01 In Vitro Score” value on HLA-B*08:01 turned out to be 19.20.
In the same order, the values of WVKRGAKKL are 4.70, 4.10, 4.60 and 34.10.
In the same order, the values of WVKRGHKKL are 3.90, 1.40, 2.80 and 47.60.
In the same order, the values of WVKRGLKKL are 24.50, 10.00, 22.10 and 65.70.
For WVKRGNKKL, at HLA-A*02:01, the “A*02:01 In Vitro Score” value was 2.40. In addition, the “A*03:01 In Vitro” value at HLA-A*03:01 is 0.90. Moreover, on HLA-A*11:01, the “A*11:01 In Vitro Score” value is recorded as 4.10. The “B*08:01 In Vitro Score” value on HLA-B*08:01 came out at 65.90.
The corresponding values for WVKRGRKKA are 4.50, 0.90, 3.10 and 3.10.
The corresponding values for WVKRGRKKL are 1.40, 13.10, 4.80 and 28.50.
In the same order, the values of WVKRGRKKS are 3.90, 0.90, 6.70 and 4.30.
WVKRGSKKL: on HLA-A*02:01, the “A*02:01 In Vitro Score” value turned out to be 3.00. Further, the “A*03:01 In Vitro” value at HLA-A*03:01 was determined as 1.90. In addition, the “A*11:01 In Vitro Score” value on HLA-A*11:01 is 11.80. Also, at HLA-B*08:01, the “B*08:01 In Vitro Score” value came out at 56.10.
The corresponding values for WVLRGRKKL are 2.40, 0.70, 3.20 and 4.00.
The corresponding values for WVQRGAKKL are 3.00, 2.00, 3.80 and 11.40.
As for WVQRGNKKA, the “A*02:01 In Vitro Score” value on HLA-A*02:01 is listed as 1.90. Further, at HLA-A*03:01, the “A*03:01 In Vitro” value was 1.20. Also, on HLA-A*11:01, the “A*11:01 In Vitro Score” value is on record as 0.80. On HLA-B*08:01, the “B*08:01 In Vitro Score” value was determined as 0.70.
For WVQRGNKKL, the “A*02:01 In Vitro Score” value at HLA-A*02:01 worked out at 4.30. In addition, at HLA-A*03:01, the “A*03:01 In Vitro” value turned out to be 1.50. The “A*11:01 In Vitro Score” value on HLA-A*11:01 is 10.70. Also, the “B*08:01 In Vitro Score” value on HLA-B*08:01 is given as 32.00.
In the case of WVSRGRKKL, the “A*02:01 In Vitro Score” value at HLA-A*02:01 came to 2.30. Moreover, the “A*03:01 In Vitro” value at HLA-A*03:01 is listed as 2.10. Further, the “A*11:01 In Vitro Score” value on HLA-A*11:01 came out at 4.40. Besides, the “B*08:01 In Vitro Score” value on HLA-B*08:01 came to 6.20.
